Data from PMC5702617, “Novel peptide probes to assess the tensional state of fibronectin fibers in cancer” (Nature Communications, 2017).
Like-named read-outs stand apart in the source and are kept apart here.

Assays:
[1] = In vitro plasma stability; format: in vitro ADME, human; settings: RP-HPLC, means from three experiments; for stability in human blood plasma: 37°C
Experimental: The stability of peptides in blood is often limited as they are rapidly cleaved by catalytic enzymes found in tissue and blood, resulting in a short biological half-life. […] To verify whether the FnBPA5 peptide can be used for in vivo applications, we next performed a plasma stability test. The metabolic stability of the peptide radiotracer ^111In-FnBPA5 was tested in vitro by incubating the radiolabeled FnBPA5 at 37°C with human blood plasma, or water as control. The unbound peptide fraction was separated from the plasma proteins at different time points (0, 1, 24, 48, and 72 h) and was analyzed by reversed-phase high-pressure liquid chromatography (RP-HPLC).
After that, the samples were filtrated using a Thomson Single StEP Filter vial 0.45 μm PVDF (Thomson Instrument Company, Oceanside, USA) and the supernatant was analyzed by reversed-phase HPLC (Varian Prostar HPLC System, SpectraLab Scientific Inc., Canada) using a D-Bio Discovery Wide Pore C18 column (25 cm × 4.6 mm; 5 μm).

[2] = Biodistribution in PC-3 tumor grafted mice; format: in vivo, mouse; settings: female, CD1 nude, mouse, in vivo, iv, 150 kBq (2.4 nmol), total radioactivity, PC-3 grafted mice, i.v. 150 kBq (2.4 nmol), mean ± SD, n = 4; for tissue to tissue ratio at 1 h: 1 h p.i.; for tissue to tissue ratio at 4 h: 4 h p.i.; for tissue to tissue ratio at 24 h: 24 h p.i.; for tissue to tissue ratio at 96 h: 96 h p.i.
Experimental: (§1) Experiments were performed 3–4 weeks after inoculation.
(§2) For the biodistribution experiments, PC-3 tumor grafted mice were injected into the tail vein with 150 kBq ^111In-FnBPA5 or ^111In-scrambled FnBPA5 (2.4 nmol, 100 µL PBS). For each peptide, groups of four mice were sacrificed at 1, 4, 24, and 96 h post injection. Blocking experiment (n = 4) was performed by injection of an excess of peptide (100 µg, 24 nmol in 100 µL PBS) directly before the administration of the corresponding radiolabeled peptide. The organs were collected, weighed and counted for activity with a γ counter (Packard Cobra II Auto, Gamma, PerkinElmer AG, Schwerzenbach, Switzerland) 4 h p.i. The results were expressed as a percentage of injected activity per gram of tissue (% IA per g tissue). The Student's t test analyses were considered as type 3 (two sample unequal variance) and statistical significance was assumed for p-values smaller than 0.05.

PC-3-bearing mice [3] = experiment: Biodistribution in PC-3 tumor grafted mice; format: in vivo, mouse; settings: PC-3 grafted mice, i.v. 150 kBq (2.4 nmol, 100 µL PBS), γ counter, mean ± SD, n = 4
Experimental: as §1, §2

PC-3-bearing mice [4] = experiment: In vivo blocking experiment in PC-3 tumor grafted mice; design: species or system mouse
Experimental: as §2

PC-3-bearing mice [5] = experiment: SPECT/CT imaging of PC-3-bearing mice; format: in vivo, mouse
Experimental: Thirty-three days from the inoculation of the tumor cells, the mice were intravenously injected with ~15 MBq ^111In-FnBPA5 resp. ^111In-scrambled FnBPA5-NODAGA (2.4 nmol, 100 µL PBS) into the tail vein. […] The images were reconstituted and processed with InVivoScope® software (Bioscan Inc., Washington DC, USA).

[6] = read-out: Tumor-to-kidney ratio
[7] = 10-fold excess of unlabeled FnBPA5 (24 nmol) pre-injected, 4 h p.i.
[8] = 4h p.i. blocking: corresponding unlabeled peptide (24 nmol) i.v. directly before the radiolabeled peptide, PC-3 grafted mice, mean ± SD, n = 4

CC[C@H](C)[C@H](NC(=O)CNC(=O)[C@H](CCCCN)NC(=O)[C@@H](NC(=O)[C@H](CO)NC(=O)[C@H](CCC(=O)O)NC(=O)[C@H](CCC(=O)O)NC(=O)[C@H](CC(=O)O)NC(=O)[C@H](Cc1ccccc1)NC(=O)[C@H](CCC(=O)O)NC(=O)[C@@H](NC(=O)[C@H](CC(C)C)NC(=O)[C@H](CC(N)=O)NC(=O)[C@H](CO)NC(=O)[C@H](CCC(=O)O)NC(=O)[C@@H](NC(=O)[C@@H](NC(=O)[C@@H](NC(=O)[C@H](CCC(N)=O)NC(=O)CNC(=O)CNC(=O)CNC(=O)[C@@H](N)CSC1CC(=O)N(CCNC(=O)CCC(C(=O)O)N2CCN(CC(=O)O)CCN(CC(=O)O)CC2)C1=O)C(C)C)[C@@H](C)O)[C@@H](C)O)C(C)C)[C@@H](C)O)C(=O)N[C@H](C(=O)N[C@H](C(=O)NCC(=O)N[C@@H](C)C(=O)N[C@H](C(=O)N[C@@H](CO)C(=O)N[C@@H](CC(=O)O)C(=O)N[C@@H](Cc1c[nH]cn1)C(=O)N[C@H](C(=O)N[C@H](C(=O)N[C@H](C(=O)N[C@@H](CCC(=O)O)C(=O)N[C@@H](CC(=O)O)C(=O)N[C@H](C(=O)N[C@@H](CCCCN)C(=O)O)[C@@H](C)O)C(C)C)[C@@H](C)O)[C@@H](C)O)C(C)C)[C@@H](C)O)C(C)C (some centres unmarked) [111In-FnBPA5, metal not drawn]
stability in human blood plasma ([1]; 1 hour time point): high stability | stability in human blood plasma ([1]; later time point): very high stability | fraction intact in human blood plasma ([1]; filtered fresh human blood plasma, 37 °C, 72 h, 12 MBq): 80% | remaining at 72 h ([1]; filtered fresh human blood plasma, 37 °C, 72 h, 12 MBq, read-out: fraction intact in human blood plasma): ~80% | tissue to tissue ratio at 1 h ([2]; read-out: Tumor-to-blood ratio): 3.05 ± 1.65 | tissue to tissue ratio at 1 h [2, 6]: 0.03 | tissue to tissue ratio at 1 h ([2]; read-out: Tumor-to-liver ratio): 0.66 ± 0.22 | tissue to tissue ratio at 4 h ([2]; read-out: Tumor-to-blood ratio): 9.68 ± 1.83 | tissue to tissue ratio at 4 h [2, 6]: 0.03 | tissue to tissue ratio at 4 h ([2]; read-out: Tumor-to-liver ratio): 1.18 ± 0.08 | tissue to tissue ratio at 24 h ([2]; read-out: Tumor-to-blood ratio): 23.9 ± 2.52 | tissue to tissue ratio at 24 h [2, 6]: 0.04 | tissue to tissue ratio at 24 h ([2]; read-out: Tumor-to-liver ratio): 2.21 ± 0.25 | tissue to tissue ratio at 96 h ([2]; read-out: Tumor-to-blood ratio): 34 ± 18.4 | tissue to tissue ratio at 96 h [2, 6]: 0.05 ± 0.02 | tissue to tissue ratio at 96 h ([2]; read-out: Tumor-to-liver ratio): 2.11 ± 0.82 | Biodistribution, Blood (PC-3-bearing mice [3]; 1 h p.i.): 1.81 ± 0.62 IA% / g | Biodistribution, Bone (PC-3-bearing mice [3]; 1 h p.i.): 1.85 ± 0.21 IA% / g | Biodistribution, Heart (PC-3-bearing mice [3]; 1 h p.i.): 1.76 ± 0.51 IA% / g | Biodistribution, Intestines (PC-3-bearing mice [3]; 1 h p.i.): 2.27 ± 0.33 IA% / g | Biodistribution, Kidneys (PC-3-bearing mice [3]; 1 h p.i.): 140.58 ± 18.10 IA% / g | Biodistribution, Liver (PC-3-bearing mice [3]; 1 h p.i.): 7.52 ± 1.50 IA% / g | Biodistribution, Lung (PC-3-bearing mice [3]; 1 h p.i.): 2.88 ± 0.64 IA% / g | Biodistribution, Muscle (PC-3-bearing mice [3]; 1 h p.i.): 0.57 ± 0.07 IA% / g | Biodistribution, Pancreas (PC-3-bearing mice [3]; 1 h p.i.): 2.58 ± 1.27 IA% / g | Biodistribution, Spleen (PC-3-bearing mice [3]; 1 h p.i.): 7.01 ± 1.23 IA% / g | Biodistribution, Stomach (PC-3-bearing mice [3]; 1 h p.i.): 3.07 ± 0.39 IA% / g | Biodistribution, Blood (PC-3-bearing mice [3]; 4 h p.i.): 0.48 ± 0.08 IA% / g | Biodistribution, Bone (PC-3-bearing mice [3]; 4 h p.i.): 1.32 ± 0.26 IA% / g | Biodistribution, Heart (PC-3-bearing mice [3]; 4 h p.i.): 0.91 ± 0.06 IA% / g | Biodistribution, Intestines (PC-3-bearing mice [3]; 4 h p.i.): 1.77 ± 0.12 IA% / g | Biodistribution, Kidneys (PC-3-bearing mice [3]; 4 h p.i.): 130.66 ± 10.32 IA% / g | Biodistribution, Liver (PC-3-bearing mice [3]; 4 h p.i.): 3.85 ± 0.16 IA% / g | Biodistribution, Lung (PC-3-bearing mice [3]; 4 h p.i.): 1.98 ± 0.12 IA% / g | Biodistribution, Muscle (PC-3-bearing mice [3]; 4 h p.i.): 0.50 ± 0.17 IA% / g | Biodistribution, Pancreas (PC-3-bearing mice [3]; 4 h p.i.): 2.31 ± 1.18 IA% / g | Biodistribution, Spleen (PC-3-bearing mice [3]; 4 h p.i.): 3.35 ± 0.33 IA% / g | Biodistribution, Stomach (PC-3-bearing mice [3]; 4 h p.i.): 2.46 ± 0.36 IA% / g | Biodistribution, Tumor (PC-3-bearing mice [3]; 4 h p.i.): 4.51 ± 0.15 IA% / g | Biodistribution, Blood (PC-3-bearing mice [3]; 24 h p.i.): 0.15 ± 0.008 IA% / g | Biodistribution, Bone (PC-3-bearing mice [3]; 24 h p.i.): 0.86 ± 0.117 IA% / g | Biodistribution, Heart (PC-3-bearing mice [3]; 24 h p.i.): 0.31 ± 0.025 IA% / g | Biodistribution, Intestines (PC-3-bearing mice [3]; 24 h p.i.): 0.57 ± 0.039 IA% / g | Biodistribution, Kidneys (PC-3-bearing mice [3]; 24 h p.i.): 92.36 ± 14.25 IA% / g | Biodistribution, Liver (PC-3-bearing mice [3]; 24 h p.i.): 1.64 ± 0.26 IA% / g | Biodistribution, Lung (PC-3-bearing mice [3]; 24 h p.i.): 1.05 ± 0.11 IA% / g | Biodistribution, Muscle (PC-3-bearing mice [3]; 24 h p.i.): 0.24 ± 0.034 IA% / g | Biodistribution, Pancreas (PC-3-bearing mice [3]; 24 h p.i.): 0.78 ± 0.47 IA% / g | Biodistribution, Spleen (PC-3-bearing mice [3]; 24 h p.i.): 1.38 ± 0.068 IA% / g | Biodistribution, Stomach (PC-3-bearing mice [3]; 24 h p.i.): 0.51 ± 0.15 IA% / g | Biodistribution, Tumor (PC-3-bearing mice [3]; 24 h p.i.): 3.59 ± 0.53 IA% / g | Biodistribution, Blood (PC-3-bearing mice [3]; 96 h p.i.): 0.06 ± 0.027 IA% / g | Biodistribution, Bone (PC-3-bearing mice [3]; 96 h p.i.): 0.50 ± 0.09 IA% / g | Biodistribution, Heart (PC-3-bearing mice [3]; 96 h p.i.): 0.14 ± 0.017 IA% / g | Biodistribution, Intestines (PC-3-bearing mice [3]; 96 h p.i.): 0.13 ± 0.02 IA% / g | Biodistribution, Kidneys (PC-3-bearing mice [3]; 96 h p.i.): 39.69 ± 4.79 IA% / g | Biodistribution, Liver (PC-3-bearing mice [3]; 96 h p.i.): 0.89 ± 0.12 IA% / g | Biodistribution, Lung (PC-3-bearing mice [3]; 96 h p.i.): 0.32 ± 0.038 IA% / g | Biodistribution, Muscle (PC-3-bearing mice [3]; 96 h p.i.): 0.095 ± 0.02 IA% / g | Biodistribution, Pancreas (PC-3-bearing mice [3]; 96 h p.i.): 0.18 ± 0.046 IA% / g | Biodistribution, Spleen (PC-3-bearing mice [3]; 96 h p.i.): 0.73 ± 0.417 IA% / g | Biodistribution, Stomach (PC-3-bearing mice [3]; 96 h p.i.): 0.31 ± 0.052 IA% / g | Biodistribution, Tumor (PC-3-bearing mice [3]; 96 h p.i.): 1.87 ± 0.773 IA% / g | effect of pre-injection of unlabeled peptide on accumulation (PC-3-bearing mice [4]; 24 nmol unlabeled peptide pre-injected, 4 h p.i., Student's t test, n = 4): significant reduction | blocking effect on uptake, liver (PC-3-bearing mice [4]; [7]): −58.2% | blocking effect on uptake, tumor tissue (PC-3-bearing mice [4]; [7]): −35.6% | Biodistribution with blocking, Blood (PC-3-bearing mice [4]; [8]): 0.29 ± 0.074 IA% / g | Biodistribution with blocking, Bone (PC-3-bearing mice [4]; [8]): 0.73 ± 0.31 IA% / g | Biodistribution with blocking, Heart (PC-3-bearing mice [4]; [8]): 0.37 ± 0.080 IA% / g | Biodistribution with blocking, Intestines (PC-3-bearing mice [4]; [8]): 0.53 ± 0.137 IA% / g | Biodistribution with blocking, Kidneys (PC-3-bearing mice [4]; [8]): 175.80 ± 32.48 IA% / g | Biodistribution with blocking, Liver (PC-3-bearing mice [4]; [8]): 1.61 ± 0.56 IA% / g | Biodistribution with blocking, Lung (PC-3-bearing mice [4]; [8]): 0.95 ± 0.317 IA% / g | Biodistribution with blocking, Muscle (PC-3-bearing mice [4]; [8]): 0.20 ± 0.12 IA% / g | Biodistribution with blocking, Pancreas (PC-3-bearing mice [4]; [8]): 0.96 ± 0.384 IA% / g | Biodistribution with blocking, Spleen (PC-3-bearing mice [4]; [8]): 1.33 ± 0.402 IA% / g | Biodistribution with blocking, Stomach (PC-3-bearing mice [4]; [8]): 1.13 ± 0.14 IA% / g | Biodistribution with blocking, Tumor (PC-3-bearing mice [4]; [8]): 2.91 ± 0.70 IA% / g | SPECT/CT distribution (PC-3-bearing mice [5]; ~15 MBq (2.4 nmol, 100 µL PBS) i.v., up to 96 h p.i.): mainly accumulated in the kidneys | SPECT/CT distribution after kidney removal (PC-3-bearing mice [5]; ~15 MBq i.v., 96 h p.i., post mortem, kidneys removed): predominant uptake in the tumor, liver, and spleen
